Measurements reported in patent publication US20230399312A1, “SUBSTITUTED PYRIMIDINES AND METHODS OF USE” (THERAVANCE BIOPHARMA R&D IP, LLC, priority 2020, published 2023).

What was measured:
[1] = target: T1, recombinant human ALK5 (TGF-βR1) protein (Homo sapiens, UniProt P36897); experiment: Biochemical ALK5 (TGF-βR1) assay to measure pKi (LANCE Ultra ULight kinase assay); conditions: apparent pKi, converted from pIC50 by Cheng-Prusoff
T1 construct: purchased Life Technologies PR9075A
T1 sequence (P36897 34-503): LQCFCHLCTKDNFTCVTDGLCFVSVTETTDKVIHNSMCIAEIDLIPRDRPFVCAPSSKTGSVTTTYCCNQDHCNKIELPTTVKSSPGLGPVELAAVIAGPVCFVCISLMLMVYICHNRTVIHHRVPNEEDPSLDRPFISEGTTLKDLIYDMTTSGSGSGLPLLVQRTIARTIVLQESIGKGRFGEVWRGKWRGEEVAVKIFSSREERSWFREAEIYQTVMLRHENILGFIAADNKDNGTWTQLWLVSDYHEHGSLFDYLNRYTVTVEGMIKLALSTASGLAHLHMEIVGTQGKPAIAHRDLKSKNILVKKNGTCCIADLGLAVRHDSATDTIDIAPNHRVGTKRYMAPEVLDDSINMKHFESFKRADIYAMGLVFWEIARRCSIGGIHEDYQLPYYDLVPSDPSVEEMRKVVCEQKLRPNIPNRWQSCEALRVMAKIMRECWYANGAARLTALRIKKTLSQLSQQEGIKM
Method in brief: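 Enzyme was preincubated with compound for 60 min at room temperature, then ATP (added from a 125 μM 5× stock with 2 mM DTT) started a 60 min reaction at 37 °C. EDTA plus Eu-anti-phospho-Topo2α (Thr1342) antibody stopped it; TR-FRET pIC50 values were converted to pKi by Cheng-Prusoff.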

[2] = system: TGF-β-stimulated SMAD3 phosphorylation in BEAS-2B cells; experiment: Cellular ALK5 potency assay, inhibition of TGF-β stimulated pSMAD3 formation in BEAS-2B cells; type: cell-based; conditions: Homo sapiens, pSMAD3, TGF-β 10 ng/mL, read-out: BEAS2B pIC50 (converted)
Method in brief: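 Human lung epithelial BEAS-2B cells were preincubated 1 h at 37 °C with compound in HBSS/HEPES/1% BSA, then stimulated 30 min with 10 ng/mL TGF-β. pSMAD3 in lysates was quantified by AlphaLISA relative to untreated stimulated cells; reported as pIC50.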

`Cc1cccc(-c2nccc(Nc3ccnc(Nc4cccc(NC(=O)N5CCN(C)CC5)c4)n3)n2)n1` [Compound 509, 4-methyl-N-[3-[[4-[[2-(6-methyl-2-pyridyl)pyrimidin-4-yl]amino]pyrimidin-2-yl]amino]phenyl]piperazine-1-carboxamide] gave a Ki [1] of 0.0398 to 0.316 nM and an IC50 [2] of 25.1 to 158 nM.

With `Cc1cccc(-c2nccc(Nc3ccnc(Nc4nc(C(=O)N5CCNCC5)cs4)n3)n2)n1` [Compound 510, [2-[[4-[[2-(6-methyl-2-pyridyl)pyrimidin-4-yl]amino]pyrimidin-2-yl]amino]thiazol-4-yl]-piperazin-1-yl-methanone] the Ki [1] was 0.0398 to 0.316 nM and the IC50 [2] was 25.1 to 158 nM.

With `COc1cc(Nc2nccc(Nc3ccnc(-c4cccc(C)n4)n3)n2)ccc1NC(=O)C1CCNCC1` [Compound 511, N-[2-methoxy-4-[[4-[[2-(6-methyl-2-pyridyl)pyrimidin-4-yl]amino]pyrimidin-2-yl]amino]phenyl]piperidine-4-carboxamide] the Ki [1] was 0.398 to 3.16 nM and the IC50 [2] was 25.1 to 158 nM.

`Cc1cccc(-c2nccc(Nc3ccnc(Nc4ccc5[nH]nnc5c4)n3)n2)n1` [Compound 512, N2-(1H-benzotriazol-5-yl)-N4-[2-(6-methyl-2-pyridyl)pyrimidin-4-yl]pyrimidine-2,4-diamine] showed a Ki [1] of 0.398 to 3.16 nM and an IC50 [2] of 25.1 to 158 nM.

In the case of `Cc1cccc(-c2nccc(Nc3ccnc(Nc4ccc(COCCO)cc4)n3)n2)n1` [Compound 513, 2-[[4-[[4-[[2-(6-methyl-2-pyridyl)pyrimidin-4-yl]amino]pyrimidin-2-yl]amino]phenyl]methoxy] ethanol], the Ki [1] is reported as 0.398 to 3.16 nM and the IC50 [2] is reported as 25.1 to 158 nM.

Compound `Cc1cccc(-c2nccc(Nc3ccnc(Nc4ccc(N)c(C)c4)n3)n2)n1` [Compound 514, N2-(4-amino-3-methyl-phenyl)-N4-[2-(6-methyl-2-pyridyl)pyrimidin-4-yl]pyrimidine-2,4-diamine] has a Ki [1] of 0.398 to 3.16 nM and an IC50 [2] of at most 20 nM.

For `Cc1cccc(-c2nccc(Nc3ccnc(Nc4ccc(N5CCNCC5)c(C)c4)n3)n2)n1` [Compound 515, N2-(3-methyl-4-piperazin-1-yl-phenyl)-N4-[2-(6-methyl-2-pyridyl)pyrimidin-4-yl]pyrimidine-2,4-diamine], the Ki [1] was 0.0398 to 0.316 nM and the IC50 [2] was 25.1 to 158 nM.

Work on `COC(=O)C1CCCN(Cc2ccc(Nc3nccc(Nc4ccnc(-c5cccc(C)n5)n4)n3)cc2)C1` (stereo not drawn) [Compound 516, methyl 1-[[4-[[4-[[2-(6-methyl-2-pyridyl)pyrimidin-4-yl]amino]pyrimidin-2-yl]amino]phenyl]methyl] piperidine-3-carboxylate] yielded a Ki [1] of 0.0398 to 0.316 nM and an IC50 [2] of 25.1 to 158 nM.

For `COC(=O)CCc1ccc(Nc2nccc(Nc3ccnc(-c4cccc(C)n4)n3)n2)cc1` [Compound 517, methyl 3-[4-[[4-[[2-(6-methyl-2-pyridyl)pyrimidin-4-yl]amino]pyrimidin-2-yl]amino]phenyl]propanoate], the Ki [1] was 0.398 to 3.16 nM and the IC50 [2] was 200 to 1260 nM.

`Cc1cccc(-c2nccc(Nc3ccnc(Nc4ccc(CN5CCC(C(=O)OCC6CNC6)C5)cc4)n3)n2)n1` (stereo not drawn) [Compound 518, azetidin-3-ylmethyl 1-[[4-[[4-[[2-(6-methyl-2-pyridyl)pyrimidin-4-yl]amino]pyrimidin-2-yl]amino]phenyl]methyl] pyrrolidine-3-carboxylate] showed a Ki [1] of 0.0398 to 0.316 nM and an IC50 [2] of 25.1 to 158 nM.

With `Cc1cccc(-c2nccc(Nc3ccnc(Nc4cccc(CN5C[C@@H](C)N[C@@H](C)C5)c4)n3)n2)n1` [Compound 519, N4-[2-(6-methyl-2-pyridyl)pyrimidin-4-yl]-N2-[3-[[rac-(3R,5S)-3,5-dimethylpiperazin-1-yl]methyl]phenyl]pyrimidine-2,4-diamine] the Ki [1] was 0.0398 to 0.316 nM and the IC50 [2] was 25.1 to 158 nM.

Compound `Cc1cccc(-c2nccc(Nc3ccnc(Nc4nc(C(=O)NC5(CO)CCNC5)cs4)n3)n2)n1` (stereo not drawn) [Compound 520, N-[3-(hydroxymethyl)pyrrolidin-3-yl]-2-[[4-[[2-(6-methyl-2-pyridyl)pyrimidin-4-yl]amino]pyrimidin-2-yl]amino]thiazole-4-carboxamide] has a Ki [1] of 0.0398 to 0.316 nM and an IC50 [2] of 25.1 to 158 nM.

For `Cc1cccc(-c2nccc(Nc3ccnc(Nc4cccc(CN5CCN(C)CC5)c4)n3)n2)n1` [Compound 521, N2-[3-[(4-methylpiperazin-1-yl)methyl]phenyl]-N4-[2-(6-methyl-2-pyridyl)pyrimidin-4-yl]pyrimidine-2,4-diamine], the Ki [1] was 0.0398 to 0.316 nM and the IC50 [2] was 25.1 to 158 nM.

`Cc1cccc(-c2nccc(Nc3ccnc(Nc4cc(C(=O)O[C@@H]5CCN(C)C5)cs4)n3)n2)n1` [Compound 522, [(3R)-1-methylpyrrolidin-3-yl] 5-[[4-[[2-(6-methyl-2-pyridyl)pyrimidin-4-yl]amino]pyrimidin-2-yl]amino]thiophene-3-carboxylate] was tested, and the Ki [1] was 0.0398 to 0.316 nM and the IC50 [2] was 25.1 to 158 nM.

For `Cc1cccc(-c2nccc(Nc3ccnc(Nc4ccc(CN5CCNC(C(=O)OCC(C)C)C5)cc4)n3)n2)n1` (stereo not drawn) [Compound 523, isobutyl 4-[[4-[[4-[[2-(6-methyl-2-pyridyl)pyrimidin-4-yl]amino]pyrimidin-2-yl]amino]phenyl]methyl] piperazine-2-carboxylate], the Ki [1] was 0.0398 to 0.316 nM and the IC50 [2] was at most 20 nM.

`Cc1cccc(-c2nccc(Nc3ccnc(Nc4ccc5c(c4)CC(N)C5)n3)n2)n1` (stereo not drawn) [Compound 524, N2-(2-aminoindan-5-yl)-N4-[2-(6-methyl-2-pyridyl)pyrimidin-4-yl]pyrimidine-2,4-diamine] gave a Ki [1] of 0.0398 to 0.316 nM and an IC50 [2] of 25.1 to 158 nM.

`Cc1cccc(-c2nccc(Nc3ccnc(Nc4ccc(N5CCC(CNCC(C)C)CC5)cc4)n3)n2)n1` [Compound 525, N2-[4-[4-[(isobutylamino)methyl]-1-piperidyl]phenyl]-N4-[2-(6-methyl-2-pyridyl)pyrimidin-4-yl]pyrimidine-2,4-diamine] showed a Ki [1] of 0.398 to 3.16 nM and an IC50 [2] of 25.1 to 158 nM.

`Cc1cccc(-c2nccc(Nc3ccnc(Nc4ccc5c(c4)OCCO5)n3)n2)n1` [Compound 526, N2-(2,3-dihydro-1,4-benzodioxin-6-yl)-N4-[2-(6-methyl-2-pyridyl)pyrimidin-4-yl]pyrimidine-2,4-diamine] gave a Ki [1] of 3.98 to 31.6 nM and an IC50 [2] of 25.1 to 158 nM.

For `Cc1cccc(-c2nccc(Nc3ccnc(Nc4ccc(S(=O)(=O)N5CCN(C6CC6)CC5)cc4)n3)n2)n1` [Compound 527, N2-[4-(4-cyclopropylpiperazin-1-yl)sulfonylphenyl]-N4-[2-(6-methyl-2-pyridyl)pyrimidin-4-yl]pyrimidine-2,4-diamine], the Ki [1] was 0.398 to 3.16 nM and the IC50 [2] was 25.1 to 158 nM.

With `CCOC(=O)Cc1cc(Nc2ccnc(Nc3ccc(N4CCNCC4)cc3)n2)nc(-c2cccc(C)n2)n1` [Compound 529, ethyl 2-[2-(6-methyl-2-pyridyl)-6-[[2-(4-piperazin-1-ylanilino)pyrimidin-4-yl]amino]pyrimidin-4-yl]acetate] the Ki [1] was 3.98 to 31.6 nM and the IC50 [2] was 25.1 to 158 nM.

`Cc1cccc(-c2nccc(Nc3ccnc(Nc4ccc(N5CCNCC5)c(CC(=O)OC5CNC5)c4)n3)n2)n1` [Compound 530, azetidin-3-yl 2-[5-[[4-[[2-(6-methyl-2-pyridyl)pyrimidin-4-yl]amino]pyrimidin-2-yl]amino]-2-piperazin-1-yl-phenyl]acetate] was tested, and the Ki [1] was 0.0398 to 0.316 nM and the IC50 [2] was 200 to 1260 nM.

In the case of `Cc1cccc(-c2nccc(Nc3ccnc(Nc4cccc(NC(=O)N5CCN(C(C)C)CC5)c4)n3)n2)n1` [Compound 531, 4-isopropyl-N-[3-[[4-[[2-(6-methyl-2-pyridyl)pyrimidin-4-yl]amino]pyrimidin-2-yl]amino]phenyl]piperazine-1-carboxamide], the Ki [1] is reported as 0.0398 to 0.316 nM and the IC50 [2] is reported as 25.1 to 158 nM.

Compound `Cc1cccc(-c2nccc(Nc3ccnc(Nc4cc(C(=O)O)cs4)n3)n2)n1` [Compound 532, 5-[[4-[[2-(6-methyl-2-pyridyl)pyrimidin-4-yl]amino]pyrimidin-2-yl]amino]thiophene-3-carboxylic acid] has a Ki [1] of 0.398 to 3.16 nM and an IC50 [2] of 200 to 1260 nM.

Work on `Cc1cccc(-c2nccc(Nc3ccnc(Nc4ccc(CN5CCN(CC(C)C)CC5)cc4)n3)n2)n1` [Compound 533, N2-[4-[(4-isobutylpiperazin-1-yl)methyl]phenyl]-N4-[2-(6-methyl-2-pyridyl)pyrimidin-4-yl]pyrimidine-2,4-diamine] yielded a Ki [1] of 0.0398 to 0.316 nM and an IC50 [2] of 25.1 to 158 nM.

Work on `Cc1cccc(-c2nccc(Nc3ccnc(Nc4ccc(N5CCN(CCO)CC5)cc4)n3)n2)n1` [Compound 534, 2-[4-[4-[[4-[[2-(6-methyl-2-pyridyl)pyrimidin-4-yl]amino]pyrimidin-2-yl]amino]phenyl]piperazin-1-yl]ethanol] yielded a Ki [1] of 0.0398 to 0.316 nM and an IC50 [2] of 25.1 to 158 nM.

In the case of `Cc1cccc(-c2nccc(Nc3ccnc(Nc4ccc(-c5cn[nH]c5)cc4)n3)n2)n1` [Compound 535, N4-[2-(6-methyl-2-pyridyl)pyrimidin-4-yl]-N2-[4-(1H-pyrazol-4-yl)phenyl]pyrimidine-2,4-diamine], the Ki [1] is reported as 3.98 to 31.6 nM and the IC50 [2] is reported as at most 20 nM.

`Cc1cccc(-c2nccc(Nc3ccnc(Nc4csc(C(=O)N5CCN[C@@H](CO)C5)c4)n3)n2)n1` [Compound 536, [(3R)-3-(hydroxymethyl)piperazin-1-yl]-[4-[[4-[[2-(6-methyl-2-pyridyl)pyrimidin-4-yl]amino]pyrimidin-2-yl]amino]-2-thienyl]methanone] was tested, and the Ki [1] was 0.0398 to 0.316 nM and the IC50 [2] was 25.1 to 158 nM.
